From ChEMBL document CHEMBL5543114, “Chimeric NOD2 Mincle Agonists as Vaccine Adjuvants” (J Med Chem, 2024) come the findings set out here.

The subject of one data set is 2B4. Nature of the data set: Induction of NFAT-GFP signal in mouse 2B4 reporter cells expressing mMincle + FcRgamma at 0.1 to 1 nmol incubated for 18 hrs by flow cytometry analysis. It is filed as functional, cell-based. The conditions noted are these: dose 0.1-1 nmol.
The subject of data set [1] is HEK293. Nature of the data set: Induction of IL-8 production in HEK293 cells expressing mouse NOD2 at 5 to 50 uM incubated for 20 hrs in presence of 10 to 100 uM (4R)-4-[[(2S)-2-[[(2R)-2-[(3R,4R,5S,6R)-3-acetamido-2,5-dihydroxy-6-(hydroxymethyl)tetrahydropyran-4-yl]oxypropanoyl]amino]propanoyl]amino]-5-amino-5-oxo-pentanoic acid by ELISA. It counts as functional, cell-based. To be noted: Homo sapiens, dose 5-50 µM.

The test system of data set [2] is Splenocyte. Nature of the data set: Improvement in memory response in ovalbumin immunized C57BL/6 mouse splenocytes assessed as increase in IFNgamma level incubated for 72 hrs in presence of (4R)-4-[[(2S)-2-[[(2R)-2-[(3R,4R,5S,6R)-3-acetamido-2,5-dihydroxy-6-(hydroxymethyl)tetrahydropyran-4-yl]oxypropanoyl]amino]propanoyl]amino]-5-amino-5-oxo-pentanoic acid by ELISA. It counts as functional, cell-based.

Data set [3] concerns HEK293. Nature of the data set: Induction of IL-8 production in HEK293 cells expressing mouse NOD2 at 5 to 50 uM incubated for 20 hrs by ELISA. To be noted: Homo sapiens, dose 5-50 µM. It counts as functional, cell-based.
The nature of data set [4]: Toxicity in ovalbumin immunized C57BL/6 mouse assessed as reactogenicity boosted with OVA at 1 week and measured after week 3, 4, 5 and 6 in presence of (4R)-4-[[(2S)-2-[[(2R)-2-[(3R,4R,5S,6R)-3-acetamido-2,5-dihydroxy-6-(hydroxymethyl)tetrahydropyran-4-yl]oxypropanoyl]amino]propanoyl]amino]-5-amino-5-oxo-pentanoic acid. The conditions noted are these: in vivo, 1008 h, time 6 weeks.

The species named for data set [5] is Mus musculus. Description: Adjuvanticity in ovalbumin immunized C57BL/6 mouse assessed as increase in anti-OVA IgG titers boosted with OVA at 1 week and measured after week 3, 4, 5 and 6 in presence of (4R)-4-[[(2S)-2-[[(2R)-2-[(3R,4R,5S,6R)-3-acetamido-2,5-dihydroxy-6-(hydroxymethyl)tetrahydropyran-4-yl]oxypropanoyl]amino]propanoyl]amino]-5-amino-5-oxo-pentanoic acid by ELISA. It is filed as functional, organism-based. The conditions noted are these: time 6.0 weeks.

The nature of data set [6]: Toxicity in ovalbumin immunized C57BL/6 mouse assessed as reactogenicity boosted with OVA at 1 week and measured after week 3, 4, 5 and 6 in presence of 6,6'-Di-0-(2,4-bis(octadecyloxy)benzoyl)-alpha,alpha'-D-trehalose. To be noted: in vivo, 1008 h, time 6 weeks.
Data set [7] relates to BMDM. Nature of the data set: Induction of IL-23 production in C57BL/6 mouse BMDM cells at 2 ug/ml incubated for 48 hrs in presence of 1 nmol [(2R,3S,4S,5R,6R)-3,4,5-trihydroxy-6-[(3R,4S,5S,6R)-3,4,5-trihydroxy-6-[(4-octadecoxybenzoyl)oxymethyl]tetrahydropyran-2-yl]oxy-tetrahydropyran-2-yl]methyl 4-octadecoxybenzoate by ELISA. It counts as functional, cell-based. The conditions noted are these: dose 2.0 µg/ml.

Data set [8] concerns BMDM. Description: Induction of IL-1beta production in C57BL/6 mouse BMDM cells at 2 ug/ml incubated for 48 hrs in presence of 1 nmol [(2R,3S,4S,5R,6R)-3,4,5-trihydroxy-6-[(3R,4S,5S,6R)-3,4,5-trihydroxy-6-[(4-octadecoxybenzoyl)oxymethyl]tetrahydropyran-2-yl]oxy-tetrahydropyran-2-yl]methyl 4-octadecoxybenzoate by ELISA. It is filed as functional, cell-based. The conditions noted are these: dose 2.0 µg/ml.

The test system of data set [9] is Splenocyte. Description: Improvement in memory response in ovalbumin immunized C57BL/6 mouse splenocytes assessed as increase in IFNgamma level incubated for 72 hrs in presence of 6,6'-Di-0-(2,4-bis(octadecyloxy)benzoyl)-alpha,alpha'-D-trehalose by ELISA. It counts as functional, cell-based.
The test system of data set [10] is HEK293. Nature of the data set: Induction of IL-8 production in HEK293 cells expressing mouse NOD2 at 10 to 100 uM incubated for 20 hrs in presence of 5 to 50 uM [(2R,3S,4S,5R,6R)-3,4,5-trihydroxy-6-[(3R,4S,5S,6R)-3,4,5-trihydroxy-6-[(4-octadecoxybenzoyl)oxymethyl]tetrahydropyran-2-yl]oxy-tetrahydropyran-2-yl]methyl 4-octadecoxybenzoate by ELISA. It is filed as functional, cell-based. The conditions noted are these: Homo sapiens, dose 10-100 µM.

Data set [11] concerns Splenocyte. Description: Improvement in memory response in ovalbumin immunized C57BL/6 mouse splenocytes assessed as increase in IFNgamma level incubated for 72 hrs in presence of [(2R,3S,4S,5R,6R)-3,4,5-trihydroxy-6-[(3R,4S,5S,6R)-3,4,5-trihydroxy-6-[(4-octadecoxybenzoyl)oxymethyl]tetrahydropyran-2-yl]oxy-tetrahydropyran-2-yl]methyl 4-octadecoxybenzoate by ELISA. It counts as functional, cell-based.

Data set [12] deals with HEK293. Description: Induction of IL-8 production in HEK293 cells expressing mouse NOD2 at 10 to 100 uM incubated for 20 hrs in presence of 5 to 50 uM 6,6'-Di-0-(2,4-bis(octadecyloxy)benzoyl)-alpha,alpha'-D-trehalose by ELISA. It counts as functional, cell-based. The conditions noted are these: Homo sapiens, dose 10-100 µM.
The species named for data set [13] is Mus musculus. Description: Adjuvanticity in ovalbumin immunized C57BL/6 mouse assessed as increase in anti-OVA IgG titers boosted with OVA at 1 week and measured after week 3, 4, 5 and 6 in presence of 6,6'-Di-0-(2,4-bis(octadecyloxy)benzoyl)-alpha,alpha'-D-trehalose by ELISA. It counts as functional, organism-based. To be noted: time 6.0 weeks.
Data set [14] has as its system BMDM. Description: Induction of IL-1beta production in C57BL/6 mouse BMDM at 1 nmol incubated for 48 hrs by ELISA. It is filed as functional, cell-based.
The nature of data set [15]: Toxicity in ovalbumin immunized C57BL/6 mouse assessed as body weight loss at 40 nmol boosted with OVA at 1 week and measured after week 3, 4, 5 and 6. To be noted: in vivo, 1008 h, time 6 weeks.
Data set [16] in a line: Toxicity in ovalbumin immunized C57BL/6 mouse assessed as appearance of inflamed skin at tail base at 40 nmol measured after 1 week post immunization. It is filed as tissue-based. To be noted: in vivo, 168 h, time 1 weeks.
Data set [17] is filed under the species Mus musculus. Nature of the data set: Adjuvanticity in ovalbumin immunized C57BL/6 mouse assessed as increase in anti-OVA IgG titers at 40 nmol boosted with OVA at 1 week and measured after week 3, 4, 5 by ELISA. It counts as functional, organism-based. To be noted: time 5.0 weeks.
Data set [18] relates to BMDM. Description: Induction of IL-6 production in C57BL/6 mouse BMDM at 1 nmol incubated for 48 hrs by ELISA. It is filed as functional, cell-based.
The test system of data set [19] is BMDM. Description: Induction of IL-23 production in C57BL/6 mouse BMDM at 1 nmol incubated for 48 hrs by ELISA. It is filed as functional, cell-based.
Data set [20] has as its system Splenocyte. Nature of the data set: Improvement in memory response in ovalbumin immunized C57BL/6 mouse splenocytes assessed as increase in IFNgamma level incubated for 72 hrs by ELISA. It counts as functional, cell-based.

Activity calls are given as the source filed them. The rule behind the calls is not given here.

In the case of `CCCCCCCCCCCCCCCCCCOc1ccc(C(=O)OC[C@H]2O[C@H](O[C@H]3O[C@H](COC(=O)c4ccc(OCCCCCCCCCCCCCCCCCC)cc4OCCCCCCCCCCCCCCCCCC)[C@@H](O)[C@H](O)[C@H]3O)[C@H](O)[C@@H](O)[C@@H]2O)c(OCCCCCCCCCCCCCCCCCC)c1`, the result in the data set with 2B4, in the data set on HEK293 [1] and in the data set filed under Mus musculus [5] was Active. Further, the result in the data set with Splenocyte [2] and with HEK293 [3] was inactive. The Activity entry in [4] is “Toxic”.

For the molecule `CC(=O)N[C@@H]1[C@@H](O[C@H](C)C(=O)N[C@@H](C)C(=O)N[C@H](CCC(=O)O)C(N)=O)[C@H](O)[C@@H](CO)O[C@H]1O` [MURAMYL DIPEPTIDE], the Activity result in [6] was “Toxic”. For the same molecule, the result with BMDM [7], in the data set with BMDM [8], in the data set on HEK293 [10], in the data set with Splenocyte [11], in the data set with HEK293 [12] and in the data set filed under Mus musculus [13] was Active. Also, in the data set on Splenocyte [9], the result was inactive.

Take `CCCCCCCCCCCCCCCCCCCOc1ccc(C(=O)OC[C@H]2O[C@H](O[C@H]3O[C@H](COC(=O)c4ccc(OCCCCCCCCCCCCCCCCCC)cc4OCCCCCCCCCCCCCCCCCc4cn(CCCCN(OC)[C@@H]5O[C@H](CO)[C@@H](O)[C@H](O[C@H](C)C(=O)N[C@@H](C)C(=O)N[C@H](CCC(=O)O)C(N)=O)[C@H]5NC(C)=O)nn4)[C@@H](O)[C@H](O)[C@H]3O)[C@H](O)[C@@H](O)[C@@H]2O)c(OCCCCCCCCCCCCCCCCCc2cn(CCCCN(OC)[C@@H]3O[C@H](CO)[C@@H](O)[C@H](O[C@H](C)C(=O)N[C@@H](C)C(=O)N[C@H](CCC(=O)O)C(N)=O)[C@H]3NC(C)=O)nn2)c1`: the outcome in the data set on BMDM [14], with 2B4, in the data set filed under Mus musculus [17], in the data set on BMDM [18], in the data set on HEK293 [3] and with BMDM [19] was Active. In addition, the outcome in the data set with Splenocyte [20] was Active. Also, the Activity entry is “Non-Toxic” in [15] and “Toxic” in data set [16].
